Data from PMC10451034, “Highly Efficient Photosensitizers with Molecular Vibrational Torsion for Cancer Photodynamic Therapy” (ACS Central Science, 2023).

Key:
[1] = UV-vis absorption, fluorescence emission, absolute fluorescence quantum yield and fluorescence lifetime; assay type: physicochemical; conditions: for molar extinction coefficient: at absorption peak about 710 nm, DCM; for Δλ, Stokes shift / λem, maximum emission wavelength / τS, fluorescence lifetime: in dichloromethane; for UV-vis absorption maximum in PBS: phosphate-buffered solution (PBS)
Procedure: First, the UV–vis absorption and fluorescence emission spectra of the series of compounds were measured and analyzed. […] Concurrently, the Stokes shifts of all four compounds were more than 60 nm (Figure 2a,b and Table 1), which could effectively improve the signal-to-noise ratio (SNR) of fluorescence compared to the ordinary TCy7. The fluorescence lifetimes of all four compounds were within 2 ns, indicating no delayed fluorescence generation (Figure 2c and Table 1). […]
Materials and Instrumentation
All the general chemicals used in this paper are purchased from Energy Chemical Co. and Innochem Chemical Co. unless otherwise specified. All solvents were […]
analytically pure. […]
All the other solvents and reagents used in this study were of analytical grade. All the BALB/c mice were purchased from Liaoning […]
III 500 spectrometers. Absorption and emission spectra for all the compounds were achieved on the Agilent Technologies CARY 60 UV -Vis spectrophotometer and VAEIAN CARY Eclipse fluorescence spectrop hotometer (Serial No. FL0812 -M018), […]
respectively. Unless otherwise specified, all spectroscopic tests were performed in a quartz cell (10×10 mm). Fluorescence quantum yield of all the compounds were measured on the HAMAMATSU absolute fluorescence quantum yield spectrometer (Serial No. C11347). Triplet lifetime of compounds were acquired on LP980 laser flash photolysis spectrometer (Edinburgh Instruments, U.K.). The cell confocal laser scanning microscope (CLSM) images were all obtained by using Olympus FV3000 confocal laser scanning microscope. […]
Figure 4, Figure S6 and Figure S7). The spin-orbital coupling (SOC) values between the S1/S1V and T2 were calculated with ORCA 4.13. Hole-Electron analysis was carried […]
ISC rate constants calculation […]
Triplet lifetime measurements
The triplet life of QTCy7-R was measured by LP980 laser flash photolysis spectrometer (Edinburgh Instruments Ltd.) in combination with a Nd:YAG laser (Surelite I-10, Continuum Electro-Optics, Inc.). The oxygen in the sample was removed by aerating nitrogen for 30 min. The samples (5 μM) were excited by a 610 nm laser pulse (1 Hz, 100 mJ per pulse, fwhm ≈ 7 ns) at 300 K. The triplet state decay kinetics were measured at the maximum absorption wavelengths of each compound.
Fluorescence lifetime and femtosecond time-resolved transient absorption spectra […]
The fluorescence lifetimes and femtosecond time-resolved transient absorption spectra of dyes were recorded on a freshly prepared samples using the time-correlated single photon counting (TCSPC) method (PicoQuant PicoHarp 300) at 300 K. The concentration is 10 μM, solvent is DCM.
Hepatoma carcinoma cells (HepG-2 cells), human mammary carcinoma (MCF-7) and mouse breast cancer cells (4T1) were maintained in Dulbecco’s modified Eagle’s

HepG2 cells = assay: MTT cytotoxicity assay, HepG2; assay type: cell-based, human; conditions: for IC50: Homo sapiens; for surviving cells: HepG2, dark, concentration around 160 μM
Source text: To further quantitatively explore the in vitro anticancer potency of QTCy7-R, the methyl thiazolyltetrazolium (MTT) assay was employed to detect cell viability. […] Next, we evaluated the cytotoxicity under dark conditions of this series of compounds at high concentrations (Figure 9e), as due to the characteristics of mitochondrial accumulation, QTCy7-Me and QTCy7-Ph might lead to mitochondrial depolarization and apoptosis at high concentrations. However, its IC50 value could still reach about 60 μM, which was almost […] than those of all cyanine photosensitizers reported. […] The photocytotoxicity index value (dark IC50/light IC50) of QTCy7-Ac was >500, manifesting that QTCy7-Ac is a PS with high efficacy but low cytotoxicity, which is extremely promising in clinical application. […]
Cytotoxicity was tested by the reduction of methyl thiazolyl tetrazolium to formazan by succinic acid dehydrogenase in the mitochondria of living cells (MTT assay). HepG2 cells, MCF7 cells and 4T1 cells were seeded to 96-well microplates (Nunc, Denmark) with a density of 1 × 10^5 cells/mL cells in 100 μL DMEM medium and incubated at 37 °C for 24 h. When the cell density reached about 70%, the QTCy7-R with different concentrations (4, 3, 2, 1.5, 1, 0.75, 0.5, 0.25, 0 μM) in PBS were added to the wells of cells in dark condition, respectively. For light groups, the cell incubation conditions were the same as those of the dark group and the cells were further incubated for 2 h, subsequently, the cells were subjected to 660 nm irradiation (20 mW/cm2) for different time (10 min, 5 min and 2.5 min) corresponding to different light doses (12 J/cm2, 6 J/cm2 and 3 J/cm2). Then all the cells were incubated for 12 h, after which the MTT solution in DMEM (0.5 mg/ml, 100 μL) was added to each well and the cells were incubated at 37 °C for another 4 h. The MTT solution was carefully removed and 100 μL DMSO was added to dissolve formazan, and the absorbance of each well was measured by a multifunctional microplate reader at 570 nm and 630 nm. The cell viability was obtained by the following equation: […]
Where “OD” represent the absorbance at 570 nm and 630 nm, “ps” and “control” represent experimental groups and control groups, respectively. […]

[2] = Oil-water partition coefficient (Log P); assay type: physicochemical
Procedure: In order to guarantee the preciseness of the supposition, electrostatic potential (ESP) analysis of the molecular surface was conducted to quantify the surface charge distribution.[48] With a unit positive charge, the surface potential of the molecule was mostly positive. As depicted in Figure 7a, most of the positive electrostatic potential regions on the surface of the molecules were located on the benzothiazole groups in all four compounds, while only a small amount of positive electrostatic potential and negative electrostatic potential are distributed on the benzoquinone group and the oxygen atom, respectively. […] On the contrary, QTCy7-Ph preferred a larger effective surface area at the low surface positive potential region (<55 kcal/mol). In addition, the areas of surface electrostatic potential in QTCy7-Me and QTCy7-Ac were maintained in a median (QTCy7-Ac was partly larger than QTCy7-Me) (Figure 7b). The oil–water partition coefficient (Log P) was also taken into account to study cell uptake. According to Log P (Figure 7c), the introduction of phenyl enhanced the lipophilicity of QTCy7-Ph, resulting a good membrane permeability, whereas the introduction of formyl enhanced the hydrophilicity of QTCy7-CHO, which decreased its cellular uptake capacity. […] This explains why only a small amount of QTCy7-CHO adhered on the membrane surface (Figure 7c).

[3] = HepG2, light or radiation study, HepG2, 660 nm irradiation 12 J/cm^2

Compound | ΦF, absolute fluorescence quantum yield [1] [%] | molar extinction coefficient [1] | Δλ, Stokes shift [1] [nm] | λem, maximum emission wavelength [1] [nm] | τS, fluorescence lifetime [1] [ns] | UV-vis absorption maximum in PBS [1] [nm] | IC50 (HepG2 cells; HepG2, HepG2, dark conditions) [nM] | IC50 (HepG2 cells; [3]) [nM] | logP [2] | surviving cells (HepG2 cells) | photocytotoxicity index (dark IC50/light IC50) (HepG2 cells; HepG2) | IC50 (HepG2 cells; HepG2, light or radiation study, HepG2, 660 nm irradiation 3 J/cm^2) [nM] | IC50 (HepG2 cells; HepG2, light or radiation study, HepG2, 660 nm irradiation 6 J/cm^2) [nM] | enhancement compared with commercial Ce6 photosensitizer (HepG2 cells; cell destruction at low light doses) [fold]
CCN1/C(=C/C=C2\C=C(C)C=C(/C=C/c3sc4ccccc4[n+]3CC)C2=O)Sc2ccccc21 [QTCy7-Me] | 16.7 | approximately 4 × 10^4 | 66 | 780 | 1.70 | 701 | ~60000 | ~900 | 1.43 | – | – | – | – | –
CCN1/C(=C/C=C2\C=C(C=O)C=C(/C=C/c3sc4ccccc4[n+]3CC)C2=O)Sc2ccccc21 [QTCy7-CHO] | 28.0 | – | 60 | 690 | 1.82 | 552 | – | ~1800 | 1.17 | 70–80% | – | – | – | –
CCN1/C(=C/C=C2\C=C(c3ccccc3)C=C(/C=C/c3sc4ccccc4[n+]3CC)C2=O)Sc2ccccc21 [QTCy7-Ph] | 17.2 | approximately 4 × 10^4 | 72 | 783 | 1.90 | 613 | ~60000 | ~300 | 1.69 | – | – | – | – | –
CCOC(=O)C1=C/C(=C\C=C2/Sc3ccccc3N2CC)C(=O)C(/C=C/c2sc3ccccc3[n+]2CC)=C1 [QTCy7-Ac] | 31.4 | – | 67 | 703 | 1.97 | 610 | – | ~300 | 1.41 | 70–80% | > 500 | ~2000 | ~1200 | 11
